“And” between values parts separate entries of the source, which are not always exact repeats. Equal entries are not always repeated.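 A five-concentration, 48-hour dose response in 96-well plates underlies each endpoint, interpolated linearly between surrounding concentrations. GI50 = concentration required for 50% inhibition of growth. TGI: concentration producing complete growth inhibition.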
Legend:
Assay in all cases: NCI anticancer screen, dose series, 48 h
SK-MEL-28 melanoma = system: SK-MEL-28 melanoma
OVCAR-5 ovarian = system: OVCAR-5 ovarian
ACHN renal = system: ACHN renal
CAKI-1 renal = system: CAKI-1 renal
LOX IMVI melanoma = system: LOX IMVI melanoma
HOP-62 NSCLC = system: HOP-62 NSCLC
SNB-19 CNS = system: SNB-19 CNS
SNB-75 CNS = system: SNB-75 CNS
MDA-MB-435 = system: MDA-MB-435
BT-549 breast = system: BT-549 breast

Structure (SMILES) | TGI (SK-MEL-28 melanoma) | TGI (OVCAR-5 ovarian) | TGI (ACHN renal) [µM] | TGI (CAKI-1 renal) [µM] | TGI (LOX IMVI melanoma) | TGI (HOP-62 NSCLC) [µM] | TGI (SNB-19 CNS) [µM] | TGI (SNB-75 CNS) | GI50 (SK-MEL-28 melanoma) [µM] | GI50 (MDA-MB-435) [µM] | TGI (MDA-MB-435) [µM] | GI50 (OVCAR-5 ovarian) [µM] | GI50 (ACHN renal) [µM] | GI50 (HOP-62 NSCLC) [µM] | GI50 (SNB-19 CNS) [µM] | GI50 (BT-549 breast) [µM] | TGI (BT-549 breast) [µM] | GI50 (SNB-75 CNS) [µM] | GI50 (LOX IMVI melanoma) [µM] | GI50 (CAKI-1 renal) [µM]
C=CCC12CCC(=O)[C@@]1(C)CC=C(O)C2=O (stereo partly specified) | > 100 µM | > 100 µM | > 100 | > 100 | > 100 µM | > 100 | > 100 | > 100 µM |  |  |  |  |  |  |  |  |  |  |  | 
Cc1ccc(NC(=O)c2nc(S(C)(=O)=O)oc2-c2ccc(F)cc2)cc1Nc1ccc2ncn(C)c(=O)c2c1 | 3.4 µM | 5.29 µM | 2.97 |  |  | 7.11 | 9.86 | 5.65 µM | 1.74 | 2.48 | 7.28 | 2.1 | 1.62 | 2.49 | 3.46 | 1.48 | 2.86 | 2.13 |  | 
O=C(O)CCC1CCc2cccc(OCC(=O)O)c2C1=O (stereo unspecified) | > 100 µM |  | > 100 | > 100 | > 100 µM | > 100 | > 100 | > 100 µM |  |  |  |  |  |  |  |  |  |  |  | 
O=c1[nH]c(F)nc2c1ncn2C1OC(CO)C(O)C1O (stereo unspecified) | > 100 µM | > 100 µM | > 100 |  | > 100 µM | > 100 | > 100 | > 100 µM | > 100 | > 100 | > 100 | > 100 | > 100 | > 100 | > 100 | > 100 | > 100 | > 100 | > 100 | 
CCOC(=O)[C@@H](C)C[C@H](Cc1ccccc1)NC(=O)c1csc([C@@H](C[C@H](C(C)C)N(C)C(=O)[C@@H](NC(=O)[C@H]2C[C@H](O)CCN2C)C(C)C)OC(C)=O)n1 |  | > 16.7 µM | > 16.7 | > 16.7 | > 16.7 µM | > 16.7 | > 16.7 | > 16.7 µM |  |  |  | 0.015 | 0.106 | 0.0146 | 0.00312 | 0.00283 | 0.0915 | 0.00384 | 0.00422 | 0.0682
O=C(O)c1cn(C2CC2)c2cc(N3CCN(C(=O)Nc4nc(-c5ccc(Br)cc5)cs4)CC3)c(F)cc2c1=O | > 100 µM |  | > 100 |  | > 100 µM | > 100 | > 100 | > 100 µM | 4.08 | 1.88 | > 100 |  | 3.11 | 4.34 | 1.41 |  |  | 0.715 | 1.09 | 
CCOC(=O)Nc1ccc2c(c1)N(C(=O)CCN(CC)CC)c1ccccc1S2 | 57.1 µM and 126 µM | 99.9 µM and 178 µM | > 95.5 | 30.6 | 37.6 µM and 67 µM | 134 | 41.1 | 39.2 µM and 62.7 µM | 60.3 |  |  | 101 |  | 44.2 | 13.5 |  | 97.2 | 11.7 |  | 11.4
O=C(Cc1ccccc1)N/N=C(/c1nc2ccc([N+](=O)[O-])cc2[nH]c1=O)C(O)c1ccccc1Cl (stereo unspecified) | > 100 µM | > 100 µM | > 100 | > 100 | > 100 µM | > 100 |  | > 100 µM |  |  |  |  |  |  |  |  |  |  |  | 
